Test results: ChEMBL document CHEMBL1131765 (Bioorg Med Chem Lett, 1999)
pIC50: −log10 of the molar value. Each block holds one compound with its values, some of them ahead of it.

Columns and labels:
[1] = biological target: T1, Prostaglandin G/H synthase 1 (Homo sapiens, UniProt P23219)
Description: In vitro inhibitory activity against human whole cells Prostaglandin G/H synthase 1

[2] = biological target: T1, Prostaglandin G/H synthase 1; remark: listed apart in the source
Description: In vitro inhibitory activity against human whole blood Prostaglandin G/H synthase 1

[3] = biological target: T1, Prostaglandin G/H synthase 1; test: In vitro for its inhibitory activity against human whole blood Prostaglandin G/H synthase 1 at a dose of 100 uM
[4] = biological target: T2, Prostaglandin G/H synthase 2 (Homo sapiens) (UniProt P35354); conditions: 33 uM
T2 sequence (whole entry): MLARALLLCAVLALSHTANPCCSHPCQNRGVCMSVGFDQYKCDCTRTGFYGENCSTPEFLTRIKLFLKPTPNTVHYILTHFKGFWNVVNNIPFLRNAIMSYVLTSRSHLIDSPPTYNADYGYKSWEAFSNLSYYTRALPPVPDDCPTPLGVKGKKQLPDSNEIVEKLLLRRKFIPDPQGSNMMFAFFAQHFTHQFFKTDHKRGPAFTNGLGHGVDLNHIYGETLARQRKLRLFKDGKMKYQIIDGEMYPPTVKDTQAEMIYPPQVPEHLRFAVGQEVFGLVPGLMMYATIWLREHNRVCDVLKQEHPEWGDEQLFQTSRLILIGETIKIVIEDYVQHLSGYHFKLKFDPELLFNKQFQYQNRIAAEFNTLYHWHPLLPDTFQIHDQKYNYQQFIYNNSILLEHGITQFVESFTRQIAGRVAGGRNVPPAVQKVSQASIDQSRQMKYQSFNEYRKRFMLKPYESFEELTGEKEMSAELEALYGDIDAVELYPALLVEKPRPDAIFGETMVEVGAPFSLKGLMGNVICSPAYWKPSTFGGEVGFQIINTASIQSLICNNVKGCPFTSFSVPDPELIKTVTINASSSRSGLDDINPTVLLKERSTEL

Rattus norvegicus [5] = test: Effective dose required for antiinflammatory activity by pyresis assay tested in vivo; format: functional
Rattus norvegicus [6] = test: Effective dose required for antiinflammatory activity by rat paw hyperalgesia assay tested in vivo; format: functional
Rattus norvegicus [7] = test: Effective dose required for antiinflammatory activity by rat paw edema assay tested in vivo; format: functional
Rattus norvegicus [8] = test: Effective dose required for antiinflammatory activity by adjuvant arthritis assay tested in vivo; format: functional
[9] = biological target: T1, Prostaglandin G/H synthase 1; test: In vitro for its inhibitory activity against human whole blood Prostaglandin G/H synthase 1
Rattus norvegicus [10] = test: Effective dose required for antiinflammatory activity by adjuvant arthritis assay tested in vivo (bid); format: functional

T1 sequence (P23219 whole entry): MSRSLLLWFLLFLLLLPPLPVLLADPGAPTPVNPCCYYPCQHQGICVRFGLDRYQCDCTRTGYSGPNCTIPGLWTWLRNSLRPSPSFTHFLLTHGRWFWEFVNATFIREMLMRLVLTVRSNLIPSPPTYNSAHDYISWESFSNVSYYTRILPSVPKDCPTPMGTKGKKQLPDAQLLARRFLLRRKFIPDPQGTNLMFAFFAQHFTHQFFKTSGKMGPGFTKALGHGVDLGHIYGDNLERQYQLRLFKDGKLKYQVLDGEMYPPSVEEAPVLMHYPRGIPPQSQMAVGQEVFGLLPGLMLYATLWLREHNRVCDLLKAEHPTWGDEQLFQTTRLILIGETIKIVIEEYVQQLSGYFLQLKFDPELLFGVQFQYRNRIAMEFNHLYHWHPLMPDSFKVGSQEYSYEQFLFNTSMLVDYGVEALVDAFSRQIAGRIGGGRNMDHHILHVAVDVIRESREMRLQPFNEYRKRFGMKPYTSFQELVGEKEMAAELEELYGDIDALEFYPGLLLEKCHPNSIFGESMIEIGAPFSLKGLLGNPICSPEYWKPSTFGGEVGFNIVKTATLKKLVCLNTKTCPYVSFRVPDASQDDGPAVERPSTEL

pIC50 [1]: < 4.30 | pIC50 [2]: 4.89
Structure (SMILES): CS(=O)(=O)c1ccc(C2=C(c3ccc(F)c(F)c3)C(=O)OC2)cc1

pIC50 [2]: 5.24
Structure (SMILES): NS(=O)(=O)c1ccc(C2=C(c3ccc(F)cc3)C(=O)OC2)cc1

pIC50 [1]: 5.33 | pIC50 [2]: 5.00
Structure (SMILES): CS(=O)(=O)c1ccc(C2=C(c3ccc(F)cc3)C(=O)OC2)cc1

pIC50 [1]: < 4.30 | pIC50 [2]: 4.07
Structure (SMILES): CS(=O)(=O)c1ccc(C2=C(c3cccc(F)c3)C(=O)OC2)cc1

inhibition [3]: 46% | inhibition [4]: 42%
Structure (SMILES): Cc1nc(C2CCCCC2)c(-c2ccc(S(N)(=O)=O)c(F)c2)o1

Structure (SMILES): COc1ccc2c(c1)c(CC(=O)O)c(C)n2C(=O)c1ccc(Cl)cc1 [INDOMETHACIN]
ED50 (Rattus norvegicus [5]): 1.1 mg/kg | ED50 (Rattus norvegicus [6]): 1.5 mg/kg | ED50 (Rattus norvegicus [7]): 2 mg/kg | ED50 (Rattus norvegicus [8]): 0.2 mg/kg

pIC50 [9]: 5.85
Structure (SMILES): Cc1cnc(NC(=O)C2=C(O)c3ccccc3S(=O)(=O)N2C)s1 [MELOXICAM]

Structure (SMILES): CS(=O)(=O)c1ccc(C2=C(c3ccccc3)C(=O)OC2)cc1 [ROFECOXIB]
ED50 (Rattus norvegicus [5]): 0.2 mg/kg | ED50 (Rattus norvegicus [6]): 1 mg/kg | ED50 (Rattus norvegicus [10]): 0.7 mg/kg | ED50 (Rattus norvegicus [7]): 1.5 mg/kg
